Results as given in patent US11369594B2, “Cytotoxic actin-targeting compounds” (priority 2017, dated 2022).
“Also recorded” adds a separate entry of the source.

Columns and labels:
F-actin in SKOV3 cells = test: F-actin staining (TRITC-Phalloidin) fluorescence micrographs; type: cell-based; settings: 2 or 20 hours
Experimental: Referring to FIG. 12, representative fluorescence micrographs are shown of SKOV3 cells treated with DMSO (1%), Myc B (25 nM), or indicated analog (10 μM) for 2 or 20 hours prior to staining of F-actin (TRITC-Phalloidin). the effects of Myc B analog treatments over 20 hours are compared with DMSO and Myc B in HER2 cancer cells. […] As described in Example 37, disruption of filamentous actin (F-actin) in HER2 cancer cells was measured using live cell confocal imaging of LifeAct-GFP reporter. The LifeAct-GFP signal in DMSO control conditions indicates the localization of F-actin structures in SKOV3 cells. […] Compounds described herein can be used to treat such actin-related problems because of their efficacy in disrupting actin, as shown by studies described in the Examples and Figures herein.

SKOV3 (ovarian) cells = test: IncuCyte PI uptake assay of cytotoxicity; type: cell-based; settings: 48 hours of treatment, compared to DMSO control
Experimental: The cytotoxicity of analogs was determined by using a PI uptake assay. HCC1954, SKBR3 or SKOV3 cells (2,000) were seeded in a 96-well plate. Treatments were prepared in 2% FBS containing media with 1 μM PI, and imaged using the IncuCyte Zoom Live Cell Analysis System equipped with a 10× objective. Phase contrast and fluorescent images were acquired every 2-3 hours for 48 hours. Several parameters are available upon analysis utilizing the IncuCyte Zoom Analysis tools including number of PI positive cells and cell confluence. See FIG. 8 for plots of SKOV3 cell analog cytotoxicity and HCC1954 cell analog cytotoxicity for specified treatments.
Cytotoxicity effects of Myc B and analogs in HER2 cancer cells was studied. Specifically, SKOV3 (ovarian) and HCC1954 (breast) cells were incubated with DMSO (1%) or analog (12.5-50 μM) in DMEM supplemented with 2% FBS and PI (1 μM) using an IncuCyte Zoom Live Cell Analysis System for 48 hours. As shown in FIGS. 10A-Q, graphs depict the number of PI positive for SKOV3 cells (left) and HCC1954 cells (right) over 48 hours of treatment with DMSO or indicated analog (12.5-50 μM).

[1] = system: HER2 cancer cells SKOV3 (ovarian) and HCC1954 (breast); test: Growth suppression of HER2 cancer cells (cell confluence change, live cell imaging); type: cell-based; settings: analogs 25 μM, Lapatinib 25 μM as comparator
Experimental: Growth suppression of HER2 cancer cells by select Myc B analogs was studied to determine rate of growth of HER2 cancer cells (SKOV3 (ovarian) and HCC1954 (breast)) as measured using a live cell imaging system. Findings are shown in FIGS. 9A and 9B, SKOV3 Ovarian cancer and HCC1954 Breast cancer cells were incubated with DMSO (1%), Myc B (25 nM), or the indicated analogs (25 μM), or with HER2 inhibitor Lapatinib (25 μM) in DMEM supplemented with 2% FBS and PI (1 μM) using an IncuCyte Zoom Live Cell Analysis System for 48 hours. Graphs depict the percent change in confluence at 48 hours compared to time zero (significant differences from DMSO *p<0.05, **p<0.01, ***p<0.001).

[2] = system: F-actin in SKOV3 cells expressing LifeAct-GFP; test: Live cell confocal imaging of LifeAct-GFP reporter (F-actin disruption); type: cell-based; settings: 0-2 hours
Experimental: To visualize effects of analogs on cellular F-actin dynamics, several cancer cell lines were transduced with a lentivirus expressing a green fluorescent protein (GFP) fusion with LifeAct, a 17 amino-acid protein containing the actin-binding domain of a yeast protein. To produce this lentivirus, 500,000 HEK293T cells were seeded on a 6-well plate coated with 0.01 mg/ml of poly-lysine solution. 24 hours later viral packing plasmids Pax2 (1 ug) and MD2G (0.5 ug) were mixed in serum free media with 1 ug of pLenti.PGK.LifeAct-GFP.W (Addgene Catalogue No. 51010), and 10 uL of Xtreme-Gene (Roche, Germany) were then added to the master mix. The mix was vortexed and incubated at room temperature for 15 minutes before being added in a drop-wise manner to HEK293T cells. After 24 hours, HCC1954, SKBR3 or SKOV3 cells were seeded in a 6-well plate and incubated at 37° C. for 24 hours. The virus-containing media from the HEK293T cells media was collected and filtered (0.45 μm). HCC1954, SKBR3 or SKOV3 cells were incubated with 0.5 mL virus-containing media, and incubated at 37° C. for 2-3 days. Efficiency of transduction was determined by visualizing GFP positive cells using fluorescence microscopy. […]
Disruption of filamentous actin (F-actin) in HER2 cancer cells was measured using live cell confocal imaging of LifeAct-GFP reporter. […]

[3] = system: HER2+ cell migration and invasion (SKOV3 cells); test: Cell migration and invasion assays (IncuCyte scratch wound, spheroid reattachment); type: cell-based; settings: sub-lethal doses (low nM)
Experimental: Effects of analogs on cellular motility including invasion and migration were evaluated using the IncuCyte Live Cell System. 25,000 SKOV3 cells were plated on a 96-well ImageLock coated with 10 μg/ml of human fibronectin. Once the cells reached approximately 90% confluence a scratch/wound is induced using the IncuCyte Woundmaker (a 96-pin would making tool). The cells were then rinsed with sterile PBS then media, with or without treatment was added. To evaluate invasion 5% Matrigel was added. The plate was then inserted into the IncuCyte Zoom Live Cell Analysis System and imaged at 10× magnification every 2-3 hours following until wound closure or 48 hours.
The percentage of wound confluence, for migration, or would density, for invasion, was determined through the IncuCyte ZOOM Scratch Wound Analysis tool adjusted to cell line dependent processing definitions. See FIGS. 5 to 6 for images and graphical results.
A three-dimensional (3D) spheroid reattachment assay was performed to further evaluate analog effects on migration and invasion. A round bottom 96-well was coated with polyhydroxyehylmethacrylate (poly-hema) to create a non-adhesive conditions upon which cancer cells can form a 3D spheroid. […]
The percentage of migration/invasion was calculated using ImageJ (NIH) by measuring the area of migration or invasion and subtracting the intial size of the spheroid. […]

[4] = system: SKBR3, MDA-MB-453 and SKOV3 cells; test: Cell viability, Trypan blue exclusion assay; type: cell-based; settings: multiple cancer cell lines
Experimental: Referring to FIG. 1A-C, the cytotoxicity of MycB on HER2+ breast and ovarian cancer cells was measured. Specifically, data is provided regarding the percentage of viable cells following treatment with MycB at 0-200 nM concentrations for 48 hours using SKBR3, MDA-MB-453 and SKOV3 cells. Cell viability was determined using Trypan blue exclusion assay (both unstained and stained cells were counted on a hemocytometer; values are mean±SEM of triplicate experiments).

[5] = system: HER2+ SKOV3 subcutaneous tumor xenograft; test: SKOV3 subcutaneous tumor xenograft study; type: in vivo, Rag2−/−:IL2Rγc−/− mice
Experimental: Referring to FIGS. 3A and 3B, a proof-of-principle study of the anticancer effects of MycB in a SKOV3 tumor xenograft model. […] Following the detection of palpable tumors, mice were randomized between vehicle control (DMSO), MycB (100 ng, intratumoral), TZ (50 μg, intraperitoneal), or both MycB and TZ (same doses/delivery) twice weekly until endpoint was reached (n=6/group; significant differences between treatment groups based on ANOVA are indicated by *P<0.05, **** P<0.0001).
The anti-tumor effects of MycB analogs are also expected to extend to other cancer types with selection of appropriate antibodies for these tumor types with novel ADC formulations.

CCC(=O)O[C@H](CC)C[C@H](OC)[C@@H](C)CC[C@@H](OC(=O)[C@@H](C)OC)[C@H](C)[C@H](OC)[C@H](C)/C=C/N(C)C=O [4h]
Localization of endogenous F-actin (TRITC-Phalloidin) (F-actin in SKOV3 cells; analogs 10 μM): most highly disruptive of F-actin

CCC(=O)O[C@H](CC)C[C@H](OC)[C@@H](C)CC[C@@H](OC(=O)C(C)C)[C@H](C)[C@H](OC)[C@H](C)/C=C/N(C)C=O [4g]
Localization of endogenous F-actin (TRITC-Phalloidin) (F-actin in SKOV3 cells; analogs 10 μM): most highly disruptive of F-actin

CCCO[C@H](CC)C[C@H](OC)[C@@H](C)CC[C@@H](OC(=O)C(C)C)[C@H](C)[C@H](OC)[C@H](C)/C=C/N(C)C=O [4f]
Cytotoxicity: number of PI positive cells (PI uptake) (SKOV3 (ovarian) cells): significant cytoxicity response | Growth suppression: percent change in confluence at 48 hours compared to time zero [1]: potent analog was seen in 4f (2534), with comparable effects of the HER2 inhibitor Lapatinib | F-actin structures (LifeAct-GFP signal) ([2]; analogs 10 μM): limited effects at early time points

COC[C@@H](OC)C(=O)O[C@H](CC[C@H](C)[C@@H](C[C@@H]1OC(=O)C[C@@H](O)C/C=C/C(=O)[C@H](C)[C@H](OC)c2coc(n2)-c2coc(n2)-c2coc(n2)/C=C/C[C@H](OC)[C@H]1C)OC)[C@H](C)[C@H](OC(C)=O)[C@H](C)/C=C/N(C)C=O [MycB, Mycalolide B]
Cytotoxicity: number of PI positive cells (PI uptake) (SKOV3 (ovarian) cells): significant increase in PI uptake | Inhibition of cell motility and invasiveness [3]: significant inhibition of cell motility and invasiveness | Cytotoxicity in cancer cell lines [4]: cytotoxicity in multiple cancer cell lines | F-actin structures (LifeAct-GFP signal) ([2]; Myc B 25 nM): time-dependent collapse of F-actin into large aggregates near the cell periphery | Localization of endogenous F-actin (TRITC-Phalloidin) (F-actin in SKOV3 cells; Myc B 25 nM): disruption of F-actin at the cell periphery and collapse into large aggregates in the cytoplasm of the cells | Growth of SKOV3 tumors (tumor volume and mass) ([5]; MycB 100 ng intratumoral in combination with TZ 50 μg intraperitoneal, twice weekly): reduced growth of SKOV3 tumors; also recorded: potential improvement when combined with TZ (Herceptin) on limiting tumor growth and metastasis | Growth of SKOV3 tumors (tumor volume and mass) ([5]; MycB alone, 100 ng intratumoral twice weekly): reduced growth of SKOV3 tumors; also recorded: anti-tumor effects of MycB on tumor volume and mass were demonstrated
